Paper PMC7116955 (Biochimica et Biophysica Acta. General Subjects, 2005)
Entries after “also recorded” stand apart in the source; their conditions may differ.

Tests used:
Details in all cases: pH 7.4
[1] = type: physicochemical
Pep 1E [2] = type: binding, SARS-CoV
Pep HR2 [3] = type: binding, SARS-CoV
Pep HR2 [4] = type: binding, SARS-CoV; remark: listed apart in the source
Pep 1D = type: binding, SARS-CoV
[5] = type: physicochemical; remark: listed apart in the source
Pep 1E [6] = type: binding, SARS-CoV; remark: listed apart in the source
[7] = type: physicochemical; remark: listed apart in the source
Pep 2B [8] = type: binding, SARS-CoV
Pep 2B [9] = type: binding, SARS-CoV; remark: listed apart in the source

WQEWEQKITALLEQAQIQQEKNEYELQKLDKWASLWEWF [Pep T-1249]
self-aggregation by ANS fluorescence [1]: self-aggregate | fluorescence emission intensity variation on titration with Pep 1E (Pep 1E [2]): The same occurs for T-1249, although the results are not so evident | ANS fluorescence / interaction with Pep HR2 (Pep HR2 [3]): no evidence of interaction | fluorescence emission intensity variation on titration with Pep HR2 (Pep HR2 [4]): The same occurs for T-1249, although the results are not so evident | ANS fluorescence increase / interaction with Pep 1D, S peptide added (Pep 1D): exhibit a larger variability; also recorded: low signal/noise ratios, preventing straightforward conclusions | membrane partition in presence of Pep 1D [5]: The same occurs | membrane partition in presence of Pep 1E [5]: The same occurs | membrane partition in presence of Pep 2B [5]: no difference occurs | membrane partition in presence of Pep HR2 [5]: no difference occurs | ANS fluorescence / interaction with Pep 1E (Pep 1E [6]): does not interact | interaction with membranes [7]: most extensive interaction with membranes | fluorescence emission intensity variation on titration with Pep 2B (Pep 2B [8]): Fluorescence variation was not detected | ANS fluorescence / interaction with Pep 2B (Pep 2B [9]): no evidence of interaction
